Results: patent publication US20150315188A1, “COMPOUNDS AND METHODS FOR TREATMENT OF HYPERTENSION” (MEDIVATION TECHNOLOGIES, INC., priority 2012, published 2015)

Legend:
[1] = target: T1, Human adrenergic α2A receptor (Homo sapiens, UniProt P08913); assay: Radioligand binding, adrenergic α2A (Protocol Group B); set-up: purchased Milipore (Millipore); details: Protocol Group B; for Ki: estimated Ki
T1 sequence (P08913 1-465): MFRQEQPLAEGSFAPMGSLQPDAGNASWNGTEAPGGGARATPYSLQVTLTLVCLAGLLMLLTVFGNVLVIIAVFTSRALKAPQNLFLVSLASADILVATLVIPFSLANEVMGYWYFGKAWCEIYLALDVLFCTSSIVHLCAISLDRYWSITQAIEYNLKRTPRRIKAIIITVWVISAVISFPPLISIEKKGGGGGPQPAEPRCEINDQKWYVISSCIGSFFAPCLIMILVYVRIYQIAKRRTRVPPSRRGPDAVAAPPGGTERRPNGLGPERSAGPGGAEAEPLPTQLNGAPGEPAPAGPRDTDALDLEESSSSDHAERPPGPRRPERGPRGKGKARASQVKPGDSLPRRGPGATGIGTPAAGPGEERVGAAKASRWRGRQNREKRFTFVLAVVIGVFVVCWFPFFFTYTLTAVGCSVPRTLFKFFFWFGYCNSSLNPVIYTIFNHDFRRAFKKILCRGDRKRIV
Outline: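 Compounds (1% DMSO vehicle, various concentrations) competed against 2 nM [^3H]MK-912 on recombinant receptor membranes for 60 min at 25° C, Tris-HCl pH 7.4 buffer with Mg2+, Ca2+, BSA. Bound radioligand filtered and counted; 10 μM rauwolscine set nonspecific binding. Values: percent inhibition of specific binding or estimated Ki.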

[2] = target: T2, Human adrenergic α2B receptor (Homo sapiens, UniProt P18089); assay: Radioligand binding, adrenergic α2B (Protocol Group B); set-up: purchased Milipore (Millipore); details: for Percentage inhibition of ligand binding, Adrenergic α2B (10 nM): 0.01 µM; for Percentage inhibition of ligand binding, Adrenergic α2B (30 nM): 0.03 µM; for Ki: estimated Ki, read-out: Ki α2B
T2 sequence (P18089 1-450): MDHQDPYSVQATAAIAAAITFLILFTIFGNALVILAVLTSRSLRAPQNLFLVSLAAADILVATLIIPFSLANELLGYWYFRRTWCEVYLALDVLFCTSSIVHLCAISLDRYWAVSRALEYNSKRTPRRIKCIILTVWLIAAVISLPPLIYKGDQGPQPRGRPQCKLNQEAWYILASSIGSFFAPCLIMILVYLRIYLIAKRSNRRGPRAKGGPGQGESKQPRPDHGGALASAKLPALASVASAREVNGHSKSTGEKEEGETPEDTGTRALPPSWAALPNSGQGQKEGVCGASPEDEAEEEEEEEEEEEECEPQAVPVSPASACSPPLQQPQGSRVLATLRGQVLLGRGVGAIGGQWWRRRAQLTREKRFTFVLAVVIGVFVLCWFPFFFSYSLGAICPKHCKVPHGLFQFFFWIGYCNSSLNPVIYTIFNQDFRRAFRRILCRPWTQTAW
Outline: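 Compounds at various concentrations in 1% DMSO were tested on recombinant membranes in Tris-HCl pH 7.4 buffer containing MgCl2, CaCl2 and 0.2% BSA.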

[3] = target: T2, Human adrenergic α2B receptor; assay: β-Arrestin GPCR functional assay, adrenergic α2B (Protocol B); type: cell-based; details: for IC50: β-arrestin, antagonist vs nor-epinephrine EC80, read-out: IC50 Adrenergic α2B; for Percentage inhibition, Adrenergic α2B: nor-epinephrine at EC80 (50 nM)
Outline: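 CHO cells overexpressing human α2B (PathHunter β-arrestin), 12,000 per well, 24 h at 37° C; compounds in 1% DMSO 30 min, then 50 nM norepinephrine (EC80) 90 min at 37° C.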

[4] = target: T1, Human adrenergic α2A receptor; assay: β-Arrestin GPCR functional assay, adrenergic α2A (Protocol B); type: cell-based; details: for IC50: β-arrestin, antagonist vs nor-epinephrine EC80; for Percentage inhibition, Adrenergic α2A: nor-epinephrine at EC80 (270 nM)
Outline: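 Antagonist mode: after 30 min compound pretreatment at 37 °C, 270 nM norepinephrine (EC80) was added for 90 min to CHO cells expressing human α2A. Luminescent enzyme-complementation detection (60 min, RT) quantified β-arrestin recruitment, expressed as percent inhibition or IC50.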

[5] = 10 nM compound, Protocol Group B
[6] = 30 nM compound, Protocol Group B
[7] = 0.1 μM compound, Protocol Group B

| Structure (SMILES) | Percentage inhibition of ligand binding, Adrenergic α2A (0.1 μM) ([1]; 0.1 μM compound) [%] | Percentage inhibition of ligand binding, Adrenergic α2A (0.3 μM) ([1]; 0.3 μM compound) [%] | Ki [1] [nM] | Percentage inhibition of ligand binding, Adrenergic α2B (10 nM) [2, 5] [%] | Percentage inhibition of ligand binding, Adrenergic α2B (30 nM) [2, 6] [%] | Percentage inhibition of ligand binding, Adrenergic α2B (0.1 μM) [2, 7] [%] | Ki ([2]; Protocol Group B) [nM] | IC50 [3] [nM] | IC50 [4] [nM] | inhibition at 0.1 µM ([1]; 0.1 μM compound, read-out: Percentage inhibition of ligand binding, Adrenergic α2A (0.1 μM)) [%] | inhibition at 0.3 µM ([1]; 0.3 μM compound, read-out: Percentage inhibition of ligand binding, Adrenergic α2A (0.3 μM)) [%] | inhibition at 0.01 µM ([2]; 10 nM compound, Protocol Group B, read-out: Percentage inhibition of ligand binding, Adrenergic α2B (10 nM)) [%] | inhibition at 0.03 µM ([2]; 30 nM compound, Protocol Group B, read-out: Percentage inhibition of ligand binding, Adrenergic α2B (30 nM)) [%] | Percentage inhibition of ligand binding, Adrenergic α2B, 0.1 nM ([2]; 0.1 nM compound, concentration series, 0.0001 µM) [%] | Percentage inhibition, Adrenergic α2B ([3]; 10 nM compound) [%] | Percentage inhibition, Adrenergic α2B ([3]; 30 nM compound) [%] | Percentage inhibition, Adrenergic α2B ([3]; 0.1 μM compound) [%] | Percentage inhibition, Adrenergic α2A ([4]; 0.1 μM compound) [%] | Percentage inhibition, Adrenergic α2A ([4]; 0.3 μM compound) [%] | inhibition at 0.1 µM ([2]; 0.1 μM compound, Protocol Group B, read-out: Percentage inhibition of ligand binding, Adrenergic α2B (0.1 μM)) [%] |
| --- | --- | --- | --- | --- | --- | --- | --- | --- | --- | --- | --- | --- | --- | --- | --- | --- | --- | --- | --- | --- |
| Cc1cc(C)c2c(c1)c1c(n2CC(C)(O)c2cccnc2)CCN2CCCC12 (single isomer, unassigned) [44b] | 89 | 98 | 6.2 | 98 | 98 | 100 | 0.81 | 10 | 909 |  |  |  |  |  |  |  |  |  |  |  |
| Cc1ccc2c(c1)c1c(n2CC(OCC2CCC2)c2ccncc2)CCN2CCCC12 (single isomer, unassigned) [138a] |  |  | 2.2 |  |  |  | 0.95 | 17.2 | 413 | 91 | 88 | 91 | 90 |  |  |  |  |  |  |  |
| Cc1ccc2c(c1)c1c(n2CC(O)c2ccncc2F)CCN2CCCC12 (single isomer, unassigned) [14b] | 80 | 89 | 6.8 | 98 | 100 | 96 | 1.1 | 14 | 424 |  |  |  |  | 18 | 11 | 93 | 97 | 13 | 44 |  |
| Cc1ccc2c(c1)c1c(n2CC(OCC2CCC2)c2ccncc2)CCN2CCCC12 (single isomer, unassigned) [138b] | 82 | 84 | 9.9 | 82 | 81 |  | 1.45 | 20.6 | 1330 |  |  |  |  |  |  |  |  |  |  |  |
| Cc1cc(F)cc2c3c(n(CC(C)(O)c4cccnc4)c12)CCN1CCCC31 (single isomer, unassigned) [75a] | 3 | 22 |  | 8 | 40 |  |  | 17 | 2080 |  |  |  |  |  |  |  |  |  |  | 87 |
| Cc1cc(F)c2c(c1)c1c(n2CC(O)c2ccncc2)CCN2CCCC12 (single isomer, unassigned) [137b] | 94 | 102 | 2.4 | 106 | 107 |  | 0.79 | 6.57 | 185 |  |  |  |  |  |  |  |  |  |  |  |
